According to the pKa sets of Baltruschat and Czodrowski (2020):

Compound	pKa
CCC1OC(=O)CC(O)C(C)C(OC2OC(C)C(OC3CC(C)(O)C(O)C(C)O3)C(N(C)C)C2O)C(CC=O)CC(C)C(=O)C=CC(C)=CC1COC1OC(C)C(O)C(OC)C1CC (centres undefined)	7.73
CC(C)(C)NC[C@H](O)COc1nsnc1N1CCOCC1	9.53
CCC1OC(=O)CC(O)C(C)C(OC2OC(C)C(O)C(N(C)C)C2O)C(CC=O)CC(C)C(=O)C=CC(C)=CC1COC1OC(C)C(O)C(OC)C1CC (centres undefined)	8.36
CN[C@H]1C(O)O[C@H](CO)[C@@H](O)[C@@H]1O (some centres undefined)	9.6
CCCN(CCC)S(=O)(=O)c1ccc(C(=O)O)cc1	3.01
COC1C(OC(C)=O)CC(=O)OC(C)CC2OC2/C=C/C(=O)C(C)CC(CC=O)C1OC1OC(C)C(O)C(N(C)C)C1O (centres undefined)	8.44
CCN(CC)C(=O)Nc1ccc(OCC(O)CNC)c(C(C)=O)c1 (centres undefined)	9.66
CC(NC(CCc1ccccc1)C(=O)O)C(=O)N1CCCC1C(=O)O (centres undefined)	7.84
CCOC(=O)[C@H](CCc1ccccc1)N[C@@H](C)C(=O)N1CCC[C@H]1C(=O)O	2.92
CCC1OC(=O)CC(O)C(C)C(CC=O)(OC2OC(C)CC(N(C)C)C2O)CC(C)C(=O)C=CC(C)=CC1C (centres undefined)	8.83
O=C1CC2(CCCC2)CC(=O)N1CCCCN1CCN(c2ncccn2)CC1	7.6
COc1ccc2c3c1O[C@H]1[C@@H](O)C=C[C@H]4[C@@H](C2)NCC[C@@]341	9.23
CC[C@H]1OC(=O)[C@@H](C)[C@H](O[C@@H]2C[C@](C)(OC)[C@@H](O)[C@@H](C)O2)[C@@H](C)[C@@H](O[C@@H]2O[C@H](C)C[C@@H](N(C)C)[C@@H]2O)[C@](C)(O)C[C@@H](C)/C(=N/OCOCCOC)[C@@H](C)[C@@H](O)[C@]1(C)O	9.27
NC(Cc1c[nH]c2ccccc12)C(=O)NC(Cc1c[nH]c2ccccc12)C(=O)O (centres undefined)	3.38
CC(C(=O)O)c1ccc(-c2ccccc2)c(F)c1 (centres undefined)	4.03
COc1ccccc1OCCNCC(O)COc1cccc2[nH]c3ccccc3c12 (centres undefined)	7.97
CC[C@H]1OC(=O)[C@@H](C)[C@H](O[C@H]2C[C@](C)(OC)[C@H](O)[C@@H](C)O2)[C@@H](C)[C@@H](O[C@@H]2O[C@H](C)C[C@@H](N(C)C)[C@@H]2O)[C@](C)(O)C[C@@H](C)C(=O)[C@@H](C)[C@@H](O)[C@]1(C)O	8.8
CCCCC[C@H](O)/C=C/[C@H]1[C@H](CCCCCCC(=O)O)C(=O)C[C@@H]1O	4.87
CCC1OC(=O)CC(O)CC(OC2OC(C)CC(N(C)C)C2O)C(CC=O)CC(C)C(=O)C=CC2OC2C1C (centres undefined)	8.79
CC(C)n1c(/C=C/[C@H](O)C[C@H](O)CC(=O)O)c(-c2ccc(F)cc2)c2ccccc21	4.31
CCN(C)C(=O)Oc1cccc(C(C)N(C)C)c1 (centres undefined)	8.8
CC(C)(C)NCC(O)COc1ccccc1C1CCCC1 (centres undefined)	9.92

Compound	pKa
C=CCOc1ccccc1OCC(O)CNC(C)C (centres undefined)	9.57
COc1ccc([C@@H]2Sc3ccccc3N(CCN(C)C)C(=O)[C@@H]2OC(C)=O)cc1	8.02
CCC(=O)OC(Cc1ccccc1)(c1ccccc1)C(C)CN(C)C (centres undefined)	9.06
CC(=O)Oc1c(C)cc(OCC(O)CNC(C)C)c(C)c1C (centres undefined)	9.54
CCN(CC)CCOC(=O)c1ccc(N)cc1	9.04
CC(C)(C)NCC(O)COc1cccc2c1C[C@H](O)[C@H](O)C2 (some centres undefined)	9.69
CO[C@H]1[C@@H](O[C@@H]2O[C@H](C)[C@@H](O[C@H]3C[C@@](C)(O)[C@@H](O[C@@H](O)CC(C)C)[C@H](C)O3)[C@@H](N(C)C)[C@H]2O)[C@@H](CCO)C[C@@H](C)[C@H](O)CC[C@@H]2O[C@H]2C[C@@H](C)O[C@@H](O)C[C@H]1O[C@H](C)O	7.61
CN(C)CCOC1(c2ccccc2)CC2CCC1(C)C2(C)C (centres undefined)	9.61
N#Cc1ccc2c(c1)N(CCCCN1CCC(O)CC1)c1ccccc1S2	8.76
Cc1cc(=O)oc2cc(C3OC(C(=O)O)C(O)C(O)C3O)ccc12 (centres undefined)	2.82
CN(C)CCC=C1c2ccccc2CCc2ccccc21	9.49
CCCCC[C@H](O)/C=C/[C@H]1[C@H](C/C=C/CCCC(=O)O)C(=O)C[C@@H]1O	4.77
NC(CC(=O)O)C(=O)O (centres undefined)	9.67
CC(C)NCC(O)COc1cccc2[nH]c3ccccc3c12 (centres undefined)	9.52
NC(Cc1c[nH]c2ccccc12)C(=O)NC(Cc1ccccc1)C(=O)O (centres undefined)	3.18
CN/C(=C\[N+](=O)[O-])NCCSCc1ccc(CN(C)C)o1	8.31
CC(Cc1ccc(C(C)(C)C)cc1)CN1CC(C)OC(C)C1 (centres undefined)	7.34
CC(C)(C)c1ccc(C(O)CCCN2CCC(C(O)(c3ccccc3)c3ccccc3)CC2)cc1 (centres undefined)	9.86
CN(C)CCCOc1nn(Cc2ccccc2)c2ccccc12	9.27
COC1CC(OC2C(C)C(O)OC(C)C(C)C(O)C(C)C(=O)C3(CO3)CC(C)C(OC3OC(C)CC(N(C)C)C3O)C2C)OC(C)C1O (centres undefined)	8.84
CC1(C)S[C@@H]2[C@@H](NC(=O)[C@H](N)c3ccc(O)cc3)C(=O)N2[C@H]1C(=O)O	2.6
CC(C)NCC(O)COc1ccc(COCCOC(C)C)cc1 (centres undefined)	9.57
